33 compounds from US20240383882A1 (Ecstasy LLC, priority 2020, published 2024) can be followed below.

Structures can show the parent of a compound that is named as a salt. A value given as a limit tells only on which side of the number the result lay.

The first test deals with male C57BL/6 mice. Description: 55° C. warm-water tail-flick test (antinociception). Type of test: in vivo. Conditions: Mus musculus, sc, 0.5 h, compounds of Table I; s.c.; 30 min; 55° C. water; configuration tested as in Table II; read-out: ED50 (mg/kg) at 30 min on C57BL/6 mice in Warm-water Tail-flick Test. The procedure, abridged:
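Mice with baseline tail-flick latency within 2 s at 55° C received compound s.c. and were retested at 30, 60, 90 and 120 min. % antinociception = 100×(test−control latency)/(20−control latency); ED50 in mg/kg.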
On to `Cc1ccc(C(C)(C)N2CCC(CCc3ccc(F)s3)(CNC(=O)NC(C)C)C2)cn1` (single isomer, unassigned) [Compound 42], for which the ED50 was not above 30 mg/kg. Consider `CCOCC1(CCn2cnc3cnccc32)CCN(C(C)(C)c2ccc(C)nc2)C1` (stereo not shown) [Compound 91, 1-(2-(3-(ethoxymethyl)-1-(2-(6-methylpyridin-3-yl)propan-2-yl)pyrrolidin-3-yl)ethyl)-1H-imidazo[4,5-c]pyridine citrate], for which the ED50 was not above 30 mg/kg. For `CCOCC1(CCc2ccc(F)cc2)CCN(Cc2cncc(F)c2)C1` (single isomer, unassigned) [Compound 45], the ED50 is more than 50 mg/kg. The same measure, in the same setting: in the case of `CCOCC1(CCn2c(=O)[nH]c3cc(F)c(F)cc32)CCN(C(C)(C)c2ccc(C)nc2)C1` (single isomer, unassigned) [Compound 99] it was not above 30 mg/kg. For the compound `Cc1ccc(C(C)(C)N2CCC(CCCc3cccs3)(C3CCCO3)C2)cn1` (single isomer, unassigned) [Compound 19], the ED50 was not above 30 mg/kg.

In the case of `CC(C)(c1ccccn1)N1CC[C@](CCc2ccc(C#N)cc2)([C@@H]2CCCO2)C1` [Compound 41, 4-(2-((S)-1-(2-(pyridin-2-yl)propan-2-yl)-3-((S)-tetrahydrofuran-2-yl)pyrrolidin-3-yl)ethyl) benzonitrile], the ED50 is not above 30 mg/kg.

The test is the same for the next values; noted with them: Mus musculus; half maximal effective dose in mice; using one of: warm water tail-flick test, spared nerve injury, chronic constriction injury, or Complete Freund's adjuvant induced inflammatory pain (not stated which per compound); read-out: Biological Activity (ED50).
For the compound `CC(C)(c1ccccn1)N1CC[C@@](CCc2ccc(C#N)cn2)(C(O)C(F)(F)F)C1` (single isomer, unassigned) [Compound 120, 6-(2-((R)-1-(2-(pyridin-2-yl)propan-2-yl)-3-((R or S)-2,2,2-trifluoro-1-hydroxyethyl)pyrrolidin-3-yl)ethyl) nicotinonitrile], the ED50 is more than 50 mg/kg. Regarding `CC(C)(c1ccccn1)N1CC[C@@](CCc2ccc3ccoc3c2)(COCc2ccccc2)C1` [Compound 164, (R)-2-(2-(3-(2-(benzofuran-6-yl)ethyl)-3-((benzyloxy)methyl)pyrrolidin-1-yl)propan-2-yl)pyridine], the ED50 is more than 50 mg/kg. Still for that read-out and setting: the figure for `CC1(C)COC1[C@]1(CCc2ccc(C#N)cc2)CCN(Cc2cccnc2)C1` (single isomer, unassigned) [Compound 193, 4-(2-((R)-3-((R or S)-3,3-dimethyloxetan-2-yl)-1-(pyridin-3-ylmethyl)pyrrolidin-3-yl)ethyl) benzonitrile] is not above 30 mg/kg.

With `CCOC(C(F)(F)F)[C@]1(CCc2ccc(C#N)cc2)CCN(C(C)(C)c2ccc(C)nc2)C1` (single isomer, unassigned) [Compound 170, 4-(2-((R)-3-((R or S)-1-ethoxy-2,2,2-trifluoroethyl)-1-(2-(6-methylpyridin-3-yl)propan-2-yl)pyrrolidin-3-yl)ethyl) benzonitrile], the ED50 was more than 50 mg/kg.

As to `Cc1ccc(C(C)(C)N2CC[C@@](CCc3ccc(C#N)cc3)(C(O)(C(F)(F)F)C(F)(F)F)C2)cn1` [Compound 165, (R)-4-(2-(3-(1,1,1,3,3,3-hexafluoro-2-hydroxypropan-2-yl)-1-(2-(6-methylpyridin-3-yl)propan-2-yl)pyrrolidin-3-yl)ethyl) benzonitrile], the ED50 was not above 30 mg/kg. On to `CC(C)(c1ccccn1)N1CC[C@@](CCc2ccc(C#N)s2)(C(O)(C(F)(F)F)C(F)(F)F)C1` [Compound 160, (R)-5-(2-(3-(1,1,1,3,3,3-hexafluoro-2-hydroxypropan-2-yl)-1-(2-(pyridin-2-yl)propan-2-yl)pyrrolidin-3-yl)ethyl)thiophene-2-carbonitrile], for which the ED50 is more than 50 mg/kg.

For the compound `CC(C)(c1ccccn1)N1CC[C@@](CCc2ccc(C#N)cc2)(C(=O)O)C1` [Compound 138, (R)-3-(4-cyanophenethyl)-1-(2-(pyridin-2-yl)propan-2-yl)pyrrolidine-3-carboxylic acid], the ED50 is more than 50 mg/kg. Consider `COc1cccc(C(C)(C)N2CC[C@@](CCc3ccc(C#N)cc3)(C(=O)O)C2)n1` [Compound 158, (R)-3-(4-cyanophenethyl)-1-(2-(6-methoxypyridin-2-yl)propan-2-yl)pyrrolidine-3-carboxylic acid], for which the ED50 was more than 50 mg/kg. As to `CC(C)(c1ccccn1)N1CC[C@](CO)(CCc2ccc(F)c(F)c2)C1` [Compound 146, (R)-(3-(3,4-difluorophenethyl)-1-(2-(pyridin-2-yl)propan-2-yl)pyrrolidin-3-yl)methanol], the ED50 was more than 50 mg/kg. Same read-out and setting: the figure for `CNC(=O)[C@]1(CCc2ccc(C#N)cc2)CCN(C(C)(C)c2ccccn2)C1` [Compound 155, (R)-3-(4-cyanophenethyl)-N-methyl-1-(2-(pyridin-2-yl)propan-2-yl)pyrrolidine-3-carboxamide] is not above 30 mg/kg; for `CC(C)(c1ccccn1)N1CC[C@](CO)(CCc2cnc3ccccc3n2)C1` [Compound 184, (R)-(1-(2-(pyridin-2-yl)propan-2-yl)-3-(2-(quinoxalin-2-yl)ethyl)pyrrolidin-3-yl)methanol] it is more than 50 mg/kg; for `CCOC(C(F)(F)F)(C(F)(F)F)[C@]1(CCc2ccc(C)cc2)CCN(C(C)(C)c2ccc(C)nc2)C1` [Compound 7, (R)-5-(2-(3-(2-ethoxy-1,1,1,3,3,3-hexafluoropropan-2-yl)-3-(4-methylphenethyl)pyrrolidin-1-yl)propan-2-yl)-2-methylpyridine] it is more than 50 mg/kg. Same read-out and setting: in the case of `CC(C)(c1ccccn1)N1CC[C@@](CCc2ccc(C#N)cc2)(c2nn[nH]n2)C1` [Compound 182, (R)-4-(2-(1-(2-(pyridin-2-yl)propan-2-yl)-3-(2H-tetrazol-5-yl)pyrrolidin-3-yl)ethyl) benzonitrile] it was more than 50 mg/kg. Still for that read-out and setting: in the case of `CC(C)(c1ccc(Cl)cc1)N1CC[C@](CO)(CCc2ccc(S(C)(=O)=O)cc2)C1` [Compound 35, (R)-(1-(2-(4-chlorophenyl)propan-2-yl)-3-(4-(methylsulfonyl)phenethyl)pyrrolidin-3-yl)methanol] it was more than 50 mg/kg; in that of `CCOC(C(F)(F)F)(C(F)(F)F)[C@]1(CCc2ccc(C#N)cc2)CCN(Cc2ccc(C)nc2)C1` [Compound 8, (R)-4-(2-(3-(2-ethoxy-1,1,1,3,3,3-hexafluoropropan-2-yl)-1-((6-methylpyridin-3-yl)methyl)pyrrolidin-3-yl)ethyl) benzonitrile], more than 50 mg/kg; in that of `CC(C)(c1ccccn1)N1CC[C@@](CCc2cccc(C#N)c2)(COCc2ccccc2)C1` [Compound 125, (R)-3-(2-(3-((benzyloxy)methyl)-1-(2-(pyridin-2-yl)propan-2-yl)pyrrolidin-3-yl)ethyl) benzonitrile], more than 50 mg/kg. For the compound `CC(C)(c1ccccn1)N1CC[C@@](CCc2ccc3nonc3c2)(CS(C)(=O)=O)C1` [Compound 169, (R)-5-(2-(3-((methylsulfonyl)methyl)-1-(2-(pyridin-2-yl)propan-2-yl)pyrrolidin-3-yl)ethyl)benzo[c] [1,2,5]oxadiazole], the ED50 was more than 50 mg/kg. `CC1(C)COC1[C@]1(CCc2ccc(C#N)cc2)CCN(Cc2ncc(Cl)s2)C1` (single isomer, unassigned) [Compound 211, 4-(2-((R)-1-((5-chlorothiazol-2-yl)methyl)-3-((R or S)-3,3-dimethyloxetan-2-yl)pyrrolidin-3-yl)ethyl)benzonitrile]: the ED50 was not above 30 mg/kg.

As for `CC(C)(c1ccc(C(F)(F)F)nc1)N1CC[C@@](CCc2ccc(C#N)cc2)(C(C)(C)O)C1` [Compound 140, (R)-4-(2-(3-(2-hydroxypropan-2-yl)-1-(2-(6-(trifluoromethyl)pyridin-3-yl)propan-2-yl)pyrrolidin-3-yl)ethyl) benzonitrile], the ED50 is more than 50 mg/kg. With `N#Cc1ccc(CC[C@]2(CO)CCN(C(c3ccc(F)cc3)c3cccnc3)C2)cc1` (stereo partly shown) [Compound 64], the ED50 is more than 50 mg/kg. The same measure, in the same setting: the figure for `CC(C)(c1ccccn1)N1CC[C@](CO)(CCc2ccc(C#N)s2)C1` [Compound 147, (R)-5-(2-(3-(hydroxymethyl)-1-(2-(pyridin-2-yl)propan-2-yl)pyrrolidin-3-yl)ethyl)thiophene-2-carbonitrile] is more than 50 mg/kg; for `CCOC[C@]1(CCc2ccc(C#N)cc2)CCN(C(c2cccnc2)c2cccnc2)C1` [Compound 10, (R)-4-(2-(1-(di(pyridin-3-yl)methyl)-3-(ethoxymethyl)pyrrolidin-3-yl)ethyl) benzonitrile] it is more than 50 mg/kg; for `CCOC[C@]1(CCc2ccc(F)cc2)CCN(Cc2cnc(OC)cc2C#N)C1` [Compound 2, (R)-5-((3-(ethoxymethyl)-3-(4-fluorophenethyl)pyrrolidin-1-yl)methyl)-2-methoxy-isonicotino nitrile] it is not above 30 mg/kg.

Consider `CC(C)(c1ccccn1)N1CC[C@@](CCc2ccc(C#N)cc2)(C(=O)NC2(C(F)(F)F)CC2)C1` [Compound 201, (R)-3-(4-cyanophenethyl)-1-(2-(pyridin-2-yl)propan-2-yl)-N-(1-(trifluoromethyl)cyclopropyl) pyrrolidine-3-carboxamide], for which the ED50 is not above 30 mg/kg. For `CC(C)(c1ccc(S(C)(=O)=O)cc1)N1CC[C@](CO)(CCc2ccc(F)cc2)C1` [Compound 36, (R)-(3-(4-fluorophenethyl)-1-(2-(4-(methylsulfonyl)phenyl)propan-2-yl)pyrrolidin-3-yl)methanol], the ED50 was more than 50 mg/kg.

For `CC(C)(c1ccccn1)N1CC[C@](CO)(CCc2ccc(C#N)c(F)c2)C1` [Compound 110, (R)-2-fluoro-4-(2-(3-(hydroxymethyl)-1-(2-(pyridin-2-yl)propan-2-yl)pyrrolidin-3-yl)ethyl) benzonitrile], the ED50 is not above 30 mg/kg. The same measure, in the same setting: the figure for `CC(C)(c1ccccn1)N1CC[C@](CCc2ccc(C#N)cc2)([C@@H]2CCCO2)C1` [Compound 41, 4-(2-((S)-1-(2-(pyridin-2-yl)propan-2-yl)-3-((S)-tetrahydrofuran-2-yl)pyrrolidin-3-yl)ethyl) benzonitrile] is more than 50 mg/kg.

The test is the same for the next values; noted with them: half maximal effective dose in mice; using one of: warm water tail-flick test, spared nerve injury, chronic constriction injury, or Complete Freund's adjuvant induced inflammatory pain (not stated which per compound).
For the compound `CC(C)(c1ccccn1)N1CC[C@@](CCc2ccc(C#N)s2)(C(O)C(F)(F)F)C1` (single isomer, unassigned) [Compound 153, 5-(2-((R)-1-(2-(pyridin-2-yl)propan-2-yl)-3-((R or S)-2,2,2-trifluoro-1-hydroxyethyl)pyrrolidin-3-yl)ethyl)thiophene-2-carbonitrile], the “Biological Activity (ED50)” value was “+ (+ indicates ED 50>50 mg/kg)”.
